Data: paper PMC12525728, “Safety, Pharmacokinetics, Translational and Molecular Mechanistic Insights on the Prostate Cancer Recurrence Suppressor Pseurotin A” (Molecules, 2025)
“And” between values parts separate entries of the source, which are not always exact repeats. Equal values may be shown once.

System: mCRPC CWR-R1ca-Luc cells
Test: mCRPC recurrence prevention study after neoadjuvant DTX and ENZ and primary tumor excision
Type: in vivo, athymic male nude mice
Settings: 60 days
Procedure: For the recurrence prevention study, nineteen 7–8-week-old athymic male nude mice (Strain Foxn^nu-Foxn^1+) were xenografted with 2 × 10^6 the mCRPC CWR-R1ca-Luc cells at the suprascapular region in 100 µL 1:1 serum-free Dulbecco’s Modified Eagle Medium (DMEM) medium-Matrigel. Mice were fed on an HFD (11.4% total fat, Cat# 7004, Envigo/Teklad, Madison, WI, USA) for 7 days before the tumor cells xenografting. When the tumors reached 100 mm^3, mice were subjected to weekly IV injections of 10 mg/kg docetaxel (DTX) (Combi-Blocks, San Diego, CA, USA) dissolved in Tween 80 (20 mg/mL) for four consecutive weeks, followed by daily IP injections of 5 mg/kg ENZ (Combi-Blocks, San Diego, CA, USA) in sterile PBS for three weeks. Following these neoadjuvant regimens, mice were randomly selected and placed into three groups. Groups 1 (n = 7) received daily oral doses of 20 mg/kg PsA (prepared in sterile PBS-DMSO 925:75). Group 2 (n = 5) received daily oral PsA 10 mg/kg. Group 3 (n = 7) received daily oral doses of PsA-free vehicle control. Treatments continued for 60 days. Isoflurane-anesthetized mice were subjected to weekly tumor monitoring using PerkinElmer IVIS Lumina Series III (Waltham, MA, USA) 30 min after an IP injection of (+)-luciferin (75 mg/kg, IP, PerkinElmer, Waltham, MA, USA) for efficiency assessment of excision surgery, tumor progression, and tumor metastasis. Following treatment regimen completion, mice were anesthetized using isoflurane (USP-vaporizer method, Matrix VIP-3000), exposure of animals in an anesthesia chamber at 3% isoflurane vaporization rate. Exposure time 2 min. Mice were then euthanized by cervical dislocation according to the American Veterinary Medical Association (AVMA) Guidelines for the Euthanasia of Animals: 2020 Edition, and tumors were collected. Tumors were snap frozen using Isopentane (J.T. Baker, Radnor, PA, USA) in liquid nitrogen before storage at −80 °C.

## CC/C=C\[C@H](O)[C@H](O)C1=C(C)C(=O)[C@]2(O1)C(=O)N[C@@](OC)(C(=O)c1ccccc1)[C@@H]2O [PsA, pseurotin A]
PsA 10 mg/kg daily oral, n = 5
  Distant recurrence Backbone, affected mice per group: 1/5
  Distant recurrence Brain, affected mice per group: 2/5
  Distant recurrence Femur, affected mice per group: 1/5
  Distant recurrence Heart, affected mice per group: 1/5
  Distant recurrence Kidney, affected mice per group: 0/5
  Distant recurrence Liver, affected mice per group: 1/5
  Distant recurrence Lung, affected mice per group: 1/5
  Distant recurrence Spleen, affected mice per group: 1/5
  Locoregional recurrence, affected mice per group: one and 1/5
PsA 20 mg/kg daily oral, n = 7
  Distant recurrence Backbone, affected mice per group: 0/7
  Distant recurrence Brain, affected mice per group: 2/7
  Distant recurrence Femur, affected mice per group: 1/7
  Distant recurrence Heart, affected mice per group: 0/7
  Distant recurrence Kidney, affected mice per group: 0/7
  Distant recurrence Liver, affected mice per group: 1/7
  Distant recurrence Lung, affected mice per group: 0/7
  Distant recurrence Spleen, affected mice per group: 0/7
  Locoregional recurrence, affected mice per group: one and 1/7
